Test results from BindingDB's records for doi:10.1016/j.chembiol.2011.02.011 (University of Oklahoma, 2011).
Where a SMILES comes first, the peptide text is derived from it. [ ]: non-standard residue; d: D form. The star is where a group is joined. ξ: configuration not given here. ξR = N=C(N)NCCCC(N)C(=O)O; βNA = c1ccc2cc(N*)ccc2c1

Target: T1, Multidrug efflux pump subunit AcrB (Escherichia coli (strain B / BL21-DE3), UniProt P31224)
T1 sequence (P31224 whole entry): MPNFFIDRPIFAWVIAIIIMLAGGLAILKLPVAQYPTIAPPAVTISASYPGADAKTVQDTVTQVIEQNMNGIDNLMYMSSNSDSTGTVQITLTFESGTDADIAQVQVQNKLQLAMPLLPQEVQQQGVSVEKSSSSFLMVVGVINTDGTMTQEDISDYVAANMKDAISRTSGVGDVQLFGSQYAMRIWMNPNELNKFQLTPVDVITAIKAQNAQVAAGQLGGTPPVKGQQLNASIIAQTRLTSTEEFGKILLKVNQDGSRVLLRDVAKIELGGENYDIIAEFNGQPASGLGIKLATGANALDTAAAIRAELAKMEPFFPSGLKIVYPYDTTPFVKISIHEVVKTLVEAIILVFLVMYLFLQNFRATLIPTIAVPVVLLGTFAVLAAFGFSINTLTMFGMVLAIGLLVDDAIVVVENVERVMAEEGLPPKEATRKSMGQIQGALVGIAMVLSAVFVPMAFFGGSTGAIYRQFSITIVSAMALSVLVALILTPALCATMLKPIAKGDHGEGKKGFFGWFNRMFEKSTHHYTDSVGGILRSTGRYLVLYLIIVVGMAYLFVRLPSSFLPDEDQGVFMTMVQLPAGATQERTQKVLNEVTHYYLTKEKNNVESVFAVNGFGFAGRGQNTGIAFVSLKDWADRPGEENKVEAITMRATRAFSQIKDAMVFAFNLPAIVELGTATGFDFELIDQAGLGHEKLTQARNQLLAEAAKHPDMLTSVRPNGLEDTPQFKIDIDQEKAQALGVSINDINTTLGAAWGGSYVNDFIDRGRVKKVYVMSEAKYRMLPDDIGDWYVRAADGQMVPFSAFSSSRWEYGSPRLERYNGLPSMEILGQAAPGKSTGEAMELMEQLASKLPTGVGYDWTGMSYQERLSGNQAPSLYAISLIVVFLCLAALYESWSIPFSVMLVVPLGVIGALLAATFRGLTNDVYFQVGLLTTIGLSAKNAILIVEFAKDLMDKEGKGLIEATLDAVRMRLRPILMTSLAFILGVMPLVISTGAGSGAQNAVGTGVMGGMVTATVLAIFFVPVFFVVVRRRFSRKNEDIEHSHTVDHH
Test: Binding Assay
From the text: Binding of inhibitors and substrates to immobilized AcrB.

Kd (pH 6)	Compound	Kd (pH 7.5)
	CO[C@@H]1[C@@H](OC(N)=O)[C@@H](O)[C@H](Oc2ccc3c(O)c(NC(=O)c4ccc(O)c(CC=C(C)C)c4)c(=O)oc3c2C)OC1(C)C [Coumarin-Based, DNA Gyrase Inhibitor]	530 µM
110 µM	NC(N)=NCCCC(NC(=O)[C@@H](N)Cc1ccccc1)C(=O)Nc1ccc2ccccc2c1 (stereo partly drawn) [MC-207,110] (H-Phe-[ξR]-βNA)	590 µM
